Earlier results in US11293039B2, “Method for producing organic acid salts from fermentation broth” (METABOLIC EXPLORER, priority 2017, dated 2022).

conditions: dilute aqueous solution, 25 °C

| Compound | pKa |
| --- | --- |
| O=C(O)C(O)CO (stereo not shown) [Glyceric acid] | 3.52 |
| O=C(O)[C@@H]1CCCCN1 [l-Pipecolic acid] | 2.28 |
| CC(CC(=O)O)CC(=O)O [3-Methylglutaric acid] | 4.24 |
| N#CCC(=O)O [Cyanoacetic acid] | 2.45 |
| O=C(O)CCCCCCC(=O)O [Octanedioic acid] | 4.52 |
| O=C(O)CCCl [3-Chloropropanoic acid] | 3.98 |
| CC(C(=O)O)C(=O)O [Methymalonic acid] | 3.07 |
| CC(Cl)C(=O)O (stereo not shown) [2-Chloropropanoic acid] | 2.83 |
| N#CCCCC(=O)O [4-Cyanobutanoic acid] | 2.42 |
| Alloxanic acid | 6.64 |
